Here are results for 17 compounds from patent US11952383B1, “Aza-podophyllotoxin analogues as potential anti-cancer agents” (KING FAISAL UNIVERSITY, priority 2023, dated 2024).

The structures appear in SMILES notation. Where two headings read alike, the source gives them in different places.

One experiment has as its system HL-60 (leukemia). The experiment can be described thus: In vitro cytotoxic activity MTT assay, HL-60. The class given is cell-based, human. The protocol: (§1) The cytotoxicity activity of the compounds of the current subject matter was assessed against three cancer cell lines such as A-549 (lung cancer), MCF-7 (breast cancer) and HL-60 (leukemia) cancer cells.
(§2) Compounds 1-15 were screened for their in vitro cytotoxic behavior utilizing a 3-(4,5-dimethyl-thiazol-2-yl)-2,5-diphenyltetrazolium bromide (MTT) assay against selected cancer human cell lines consisting of MCF-7 (human breast cancer), A-549 (lung cancer) and HL-60 (leukemia) (T. Mosmann, J. Immunol. Meth., 1983, 65, 55-63). The cells were cultured at 37° C. in RMPI1640 medium supplemented with 10% fetal bovine serum, 50 IU/mL penicillin, and 50 μg/mL streptomycin in a 5% CO2 incubator. All cells were sub-cultured 3 times/week by trypsinisation. Viable cells were seeded and allowed to adhere for 12 h before a test drug was added in 96-well plates at an initial density of 1.0×10^5 cells/mL. Tumour cell lines were separately exposed to various concentrations of the tested compounds followed by incubation at a temperature of 37° C. during 24 h inside a medium of fresh RMPI 1640. Cells were subsequently incubated at 37° C. using MTT at 0.5 mg/mL during 4 h. After removal of supernatant, formazan crystals were dissolved in isopropanol and the optical density was measured at 570 nm. Etopside and Cisplatin were used as a positive control.
(Tetrazolium assays rely on reduction of a dye to a coloured formazan, in cell work by metabolically active cells.)

The test system of a further experiment is A-549 (lung cancer). The experiment in a line: In vitro cytotoxic activity MTT assay, A-549. Type of experiment: cell-based, human. The protocol: as §1, §2
Experiment [1] concerns MCF-7 (human breast cancer). The experiment in a line: In vitro cytotoxic activity MTT assay, MCF-7. The class given is cell-based. The protocol:
as §1, §2

The mark [2] stands for this setting: Homo sapiens, HL-60 leukemia cells, MTT, 24 h incubation, read-out: Anti-proliferative activity: IC50 (μM) HL-60.
Where [3] appears, read: Homo sapiens, A549, A-549 lung cancer cells, MTT, 24 h incubation, read-out: Anti-proliferative activity: IC50 (μM) A-549.
Setting [4] is: Homo sapiens, MCF7, MCF-7 breast cancer cells, MTT, 24 h incubation, read-out: Anti-proliferative activity: IC50 (μM) MCF-7.
The mark [5] stands for this setting: HL-60 leukemia cells, MTT, 24 h incubation, read-out: Anti-proliferative activity: IC50 (μM) HL-60.
The mark [6] stands for this setting: A-549 lung cancer cells, MTT, 24 h incubation, read-out: Anti-proliferative activity: IC50 (μM) A-549.
Setting [7] is: MCF-7 breast cancer cells, MTT, 24 h incubation, read-out: Anti-proliferative activity: IC50 (μM) MCF-7.

`COc1ccc(C2C3=C(COC3=O)Nc3nc4ccccc4n32)cc1OC` (stereo not drawn) [Example 2, 11-(3,4-dimethoxyphenyl)-4,11-dihydro-1H,3H-benzo[4,5]imidazo[1,2-a]furo[3,4-d]pyrimidin-1-one]: the results for the IC50 (in the experiment with HL-60 (leukemia) (setting [2]); in the experiment on A-549 (lung cancer) (setting [3]); in experiment [1] (setting [4])) were 0.096 µM, 0.12 µM and 0.104 µM, respectively.

`COc1cc(C2C3=C(CSC3=O)Nc3nc4ccccc4n32)cc(OC)c1OC` (stereo not drawn) [Example 12, 11-(3,4,5-trimethoxyphenyl)-4,11-dihydro-1H,3H-benzo[4,5]imidazo[1,2-a]thieno[3,4-d]pyrimidin-1-one]: the IC50 with HL-60 (leukemia) (setting [2]) came to 0.085 µM; in the experiment on A-549 (lung cancer) (setting [3]), 0.075 µM; in experiment [1] (setting [4]), 0.111 µM.

Turning to `N.N.[Cl][Pt][Cl]` [Cisplatin, reference compound], the IC50 in the experiment with HL-60 (leukemia) (setting [5]) is 1.16 µM; in the experiment on A-549 (lung cancer) (setting [6]) it was 9.25 µM; in experiment [1] (setting [7]) it was 15.9 µM.

Turning to `O=C1OCC2=C1C(c1ccc(F)cc1)n1c(nc3ccccc31)N2` (stereo not drawn) [Example 13, 11-(4-fluorophenyl)-4,11-dihydro-1H,3H-benzo[4,5]imidazo[1,2-a]furo[3,4-d]pyrimidin-1-one], the IC50 with HL-60 (leukemia) (Homo sapiens, HL-60 cancer cells, read-out: IC50 (concentration of cytotoxic agent which inhibits proliferation of the treated cells by 50%) against HL-60) came to 0.061 µM; in the experiment with HL-60 (leukemia) (setting [2]), 0.061 µM; in the experiment with A-549 (lung cancer) (Homo sapiens, A549, A-549 cancer cells, read-out: IC50 (concentration of cytotoxic agent which inhibits proliferation of the treated cells by 50%) against A-549) it was 0.071 µM; with A-549 (lung cancer) (setting [3]) it was 0.071 µM; in experiment [1] (setting [4]), 0.045 µM; in experiment [1] (Homo sapiens, MCF7, MCF-7 cancer cells, read-out: IC50 (concentration of cytotoxic agent which inhibits proliferation of the treated cells by 50%) against MCF-7), 0.045 µM.

For `O=C1OCC2=C1C(c1ccc(Cl)cc1)n1c(nc3ccccc31)N2` (stereo not drawn) [Example 14, 11-(4-chlorophenyl)-4,11-dihydro-1H,3H-benzo[4,5]imidazo[1,2-a]furo[3,4-d]pyrimidin-1-one], the values for the IC50 (in the experiment with HL-60 (leukemia) (setting [2]); with A-549 (lung cancer) (setting [3]); in experiment [1] (setting [4])) were 0.069 µM, 0.058 µM and 0.074 µM, respectively.

On to `CC(=O)Nc1ccc(C2C3=C(COC3=O)Nc3nc4ccccc4n32)cc1` (stereo not drawn) [Example 10, N-(4-(1-oxo-4,11-dihydro-1H,3H-benzo[4,5]imidazo[1,2-a]furo[3,4-d]pyrimidin-11-yl)phenyl)acetamide], for which the IC50 in the experiment on HL-60 (leukemia) (setting [2]) is 0.281 µM; in the experiment on A-549 (lung cancer) (setting [3]), 0.211 µM; in experiment [1] (setting [4]), 0.374 µM.

Regarding `COc1cc(C2C3=C(COC3=O)Nc3nc4ccccc4n32)cc(OC)c1OC` (stereo not drawn) [Example 3, 11-(3,4,5-trimethoxyphenyl)-4,11-dihydro-1H,3H-benzo[4,5]imidazo[1,2-a]furo[3,4-d]pyrimidin-1-one], the IC50 amounted to 0.128 µM in the experiment with HL-60 (leukemia) (setting [2]), 0.081 µM in the experiment on A-549 (lung cancer) (setting [3]) and 0.115 µM in experiment [1] (setting [4]).

For the compound `COc1ccc(C2C3=C(COC3=O)Nc3nc4ccccc4n32)cc1` (stereo not drawn) [Example 1, 11-(4-methoxyphenyl)-4,11-dihydro-1H,3H-benzo[4,5]imidazo[1,2-a]furo[3,4-d]pyrimidin-1-one], the IC50 in the experiment with HL-60 (leukemia) (setting [2]) was 0.082 µM; in the experiment on A-549 (lung cancer) (setting [3]), 0.092 µM; in experiment [1] (setting [4]), 0.126 µM.

As for `COc1cc([C@@H]2c3cc4c(cc3[C@@H](O[C@@H]3O[C@@H]5CO[C@@H](C)O[C@H]5[C@H](O)[C@H]3O)[C@H]3COC(=O)[C@H]23)OCO4)cc(OC)c1O` [Etoposide, reference compound], the IC50 amounted to 0.31 µM in the experiment on HL-60 (leukemia) (setting [5]), 11.9 µM in the experiment on A-549 (lung cancer) (setting [6]) and 32.8 µM in experiment [1] (setting [7]).

In the case of `O=C1OCC2=C1C(c1ccc(Br)cc1)n1c(nc3ccccc31)N2` (stereo not drawn) [Example 15, 11-(4-bromophenyl)-4,11-dihydro-1H,3H-benzo[4,5]imidazo[1,2-a]furo[3,4-d]pyrimidin-1-one], the IC50 in the experiment on HL-60 (leukemia) (setting [2]) stood at 0.092 µM; in the experiment on A-549 (lung cancer) (setting [3]), 0.105 µM; in experiment [1] (setting [4]), 0.081 µM.

For `O=C1OCC2=C1C(c1ccc3c(c1)OCO3)n1c(nc3ccccc31)N2` (stereo not drawn) [Example 4, 11-(benzo[d][1,3]dioxol-5-yl)-4,11-dihydro-1H,3H-benzo[4,5]imidazo[1,2-a]furo[3,4-d]pyrimidin-1-one], the results for the IC50 (with HL-60 (leukemia) (setting [2]); in the experiment on A-549 (lung cancer) (setting [3]); in experiment [1] (setting [4])) were 0.084 µM, 0.104 µM and 0.097 µM, respectively.

On to `Cc1ccc(C2C3=C(COC3=O)Nc3nc4ccccc4n32)cc1` (stereo not drawn) [Example 7, 11-(p-tolyl)-4,11-dihydro-1H,3H-benzo[4,5]imidazo[1,2-a]furo[3,4-d]pyrimidin-1-one], for which the IC50 in the experiment with HL-60 (leukemia) (setting [2]) is 0.072 µM; in the experiment with A-549 (lung cancer) (setting [3]) it was 0.067 µM; in experiment [1] (setting [4]), 0.069 µM.

With `O=C1OCC2=C1C(c1ccc(O)c(O)c1)n1c(nc3ccccc31)N2` (stereo not drawn) [Example 5, 11-(3,4-dihydroxyphenyl)-4,11-dihydro-1H,3H-benzo[4,5]imidazo[1,2-a]furo[3,4-d]pyrimidin-1-one], the IC50 stood at 0.178 µM with HL-60 (leukemia) (setting [2]), 0.151 µM with A-549 (lung cancer) (setting [3]) and 0.154 µM in experiment [1] (setting [4]).

In the case of `CN(C)c1ccc(C2C3=C(COC3=O)Nc3nc4ccccc4n32)cc1` (stereo not drawn) [Example 8, 11-(4-(dimethylamino)phenyl)-4,11-dihydro-1H,3H-benzo[4,5]imidazo[1,2-a]furo[3,4-d]pyrimidin-1-one], the IC50 turned out to be 0.129 µM in the experiment with HL-60 (leukemia) (setting [2]), 0.092 µM with A-549 (lung cancer) (setting [3]) and 0.087 µM in experiment [1] (setting [4]).

For `COc1cc(C2C3=C(CNC3=O)Nc3nc4ccccc4n32)cc(OC)c1OC` (stereo not drawn) [Example 11, 11-(3,4,5-trimethoxyphenyl)-2,3,4,11-tetrahydro-1H-benzo[4,5]imidazo[1,2-a]pyrrolo[3,4-d]pyrimidin-1-one], the results for the IC50 (in the experiment on HL-60 (leukemia) (setting [2]); with A-549 (lung cancer) (setting [3]); in experiment [1] (setting [4])) were 0.104 µM, 0.086 µM and 0.125 µM, respectively.

In the case of `Nc1ccc(C2C3=C(COC3=O)Nc3nc4ccccc4n32)cc1` (stereo not drawn) [Example 9, 11-(4-aminophenyl)-4,11-dihydro-1H,3H-benzo[4,5]imidazo[1,2-a]furo[3,4-d]pyrimidin-1-one], the IC50 in the experiment with HL-60 (leukemia) (setting [2]) was 0.143 µM; in the experiment with A-549 (lung cancer) (setting [3]), 0.123 µM; in experiment [1] (setting [4]) it was 0.162 µM.

Consider `COc1cc(C2C3=C(COC3=O)Nc3nc4ccccc4n32)ccc1O` (stereo not drawn) [Example 6, 11-(4-hydroxy-3-methoxyphenyl)-4,11-dihydro-1H,3H-benzo[4,5]imidazo[1,2-a]furo[3,4-d]pyrimidin-1-one], for which the IC50 in the experiment with HL-60 (leukemia) (setting [2]) worked out at 0.133 µM; with A-549 (lung cancer) (setting [3]) it was 0.095 µM; in experiment [1] (setting [4]) it was 0.105 µM.
